Measurements published in ChEMBL document CHEMBL1201862, “PubChem BioAssay data set” (2004).
The source made the active and inactive calls.

Key:
[1] = NIH3T3 cell viability loss – ATP luminescence, mouse fibroblasts, counter-screen, dose response (AID 2010); format: functional, cell-based;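 note: cells exposed to compound for about 90 hours before reading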
[2] = T. cruzi infection blockers in NIH3T3 cells – beta-gal luminescence, NIH3T3 host cells, confirmation (AID 2630); format: functional, cell-based; details: Mus musculus
[3] = Trypanosoma cruzi growth suppression in host cells – NIH3T3 host cells, beta-gal luminescence, confirmation (AID 2044); format: functional, cell-based;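 note: intracellular parasites grown in NIH/3T3 mouse fibroblasts as host cells; luminescent beta-galactosidase reporter signal from transgenic T. cruzi replicating inside host cells; inhibitors lower the luminescence signal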
[4] = Luminescence Cell-Based/Microorganism Confirmation at Dose of Inhibitors of Trypanosoma cruzi Infection. [Related pubchem assays: 1885, 1968 ]; format: functional
[5] = Luminescence Cell-Based Secondary HTS screen to identify cytotoxic compounds of NIH3T3 cells. [Related pubchem assays: 1885, 1968 ]; format: functional
MDCK [6] = assay: MDCK cell cytotoxicity, dose response, cytotoxicity control (AID 540296); format: functional; details: Canis lupus familiaris
Nonstructural protein 1 = Nonstructural protein 1 (Influenza A virus, UniProt Q194T2); format: functional, Influenza A virus (A/California/07/2009(H1N1))
Chain of Nonstructural protein 1 (Q194T2 whole entry): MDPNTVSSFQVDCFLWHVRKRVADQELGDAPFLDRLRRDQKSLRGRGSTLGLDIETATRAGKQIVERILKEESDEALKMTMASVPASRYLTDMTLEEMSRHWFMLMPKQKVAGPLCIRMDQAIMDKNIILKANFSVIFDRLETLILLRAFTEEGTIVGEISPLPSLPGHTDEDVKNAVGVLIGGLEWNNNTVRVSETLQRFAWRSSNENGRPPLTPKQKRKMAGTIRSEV

MDCK [7] = assay: antiviral activity against H1N1 influenza, dose response, cell-based, strain KY180 (AID 540254); format: functional; details: Canis lupus familiaris
Keap1/Nrf2 = Keap1/Nrf2 (Homo sapiens, UniProt Q14145); assay: disruptors of Keap1 binding to Nrf2 peptide – biochemical, fluorescence polarization, cherry-picked samples, dose response (AID 588683)
Chain of Keap1/Nrf2 (Q16236 whole entry): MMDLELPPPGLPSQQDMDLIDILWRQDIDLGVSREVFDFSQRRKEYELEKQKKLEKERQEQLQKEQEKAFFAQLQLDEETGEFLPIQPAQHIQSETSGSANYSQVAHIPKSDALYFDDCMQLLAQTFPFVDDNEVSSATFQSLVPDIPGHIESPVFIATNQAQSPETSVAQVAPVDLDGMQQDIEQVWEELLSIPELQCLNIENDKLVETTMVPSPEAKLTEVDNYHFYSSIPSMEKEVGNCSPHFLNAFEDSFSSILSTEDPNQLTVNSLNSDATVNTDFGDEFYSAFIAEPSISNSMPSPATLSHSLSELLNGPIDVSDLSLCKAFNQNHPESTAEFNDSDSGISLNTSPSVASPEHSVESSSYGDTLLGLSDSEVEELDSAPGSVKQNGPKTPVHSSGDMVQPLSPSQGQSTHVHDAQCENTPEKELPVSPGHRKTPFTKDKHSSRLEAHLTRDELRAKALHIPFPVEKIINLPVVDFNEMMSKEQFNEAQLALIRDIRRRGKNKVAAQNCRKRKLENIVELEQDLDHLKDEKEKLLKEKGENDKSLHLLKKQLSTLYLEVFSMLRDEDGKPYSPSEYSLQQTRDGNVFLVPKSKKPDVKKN
Chain of Keap1/Nrf2 (Q14145 whole entry): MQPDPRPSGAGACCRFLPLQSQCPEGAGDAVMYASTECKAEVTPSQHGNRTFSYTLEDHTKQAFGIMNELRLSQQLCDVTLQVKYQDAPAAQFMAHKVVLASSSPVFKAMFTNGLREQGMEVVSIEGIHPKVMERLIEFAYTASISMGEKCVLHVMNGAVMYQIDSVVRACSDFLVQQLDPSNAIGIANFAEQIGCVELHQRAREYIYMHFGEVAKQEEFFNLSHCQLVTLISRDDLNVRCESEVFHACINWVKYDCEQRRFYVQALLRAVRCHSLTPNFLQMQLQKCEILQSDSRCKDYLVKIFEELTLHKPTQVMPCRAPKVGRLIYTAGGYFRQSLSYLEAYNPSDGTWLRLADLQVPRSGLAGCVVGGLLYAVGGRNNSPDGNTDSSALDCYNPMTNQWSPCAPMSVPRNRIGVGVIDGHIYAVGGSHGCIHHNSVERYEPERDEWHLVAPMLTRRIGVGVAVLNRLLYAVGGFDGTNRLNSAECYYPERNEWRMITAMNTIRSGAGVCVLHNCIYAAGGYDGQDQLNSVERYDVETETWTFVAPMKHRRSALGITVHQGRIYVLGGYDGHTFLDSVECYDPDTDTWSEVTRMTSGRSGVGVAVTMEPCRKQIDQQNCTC

HeLa = assay: ATP-based viability loss in HeLa cells – cell-based, CellTiter-Glo luminescence, cherry-pick samples, cytotoxicity control for MITF activator project, dose response (AID 540259); format: functional; details: Homo sapiens
[8] = target: T1, Alkaline phosphatase, tissue-nonspecific isozyme (Homo sapiens, UniProt P05186); assay: activation of tissue-nonspecific alkaline phosphatase – biochemical, TNAP isozyme, human IAP uHTS hits, selectivity assay for human IAP activator project, dose response (AID 488886); format: functional;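 note: potency of compounds raising TNAP activity as a selectivity check on IAP activators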
T1 sequence (P05186 whole entry): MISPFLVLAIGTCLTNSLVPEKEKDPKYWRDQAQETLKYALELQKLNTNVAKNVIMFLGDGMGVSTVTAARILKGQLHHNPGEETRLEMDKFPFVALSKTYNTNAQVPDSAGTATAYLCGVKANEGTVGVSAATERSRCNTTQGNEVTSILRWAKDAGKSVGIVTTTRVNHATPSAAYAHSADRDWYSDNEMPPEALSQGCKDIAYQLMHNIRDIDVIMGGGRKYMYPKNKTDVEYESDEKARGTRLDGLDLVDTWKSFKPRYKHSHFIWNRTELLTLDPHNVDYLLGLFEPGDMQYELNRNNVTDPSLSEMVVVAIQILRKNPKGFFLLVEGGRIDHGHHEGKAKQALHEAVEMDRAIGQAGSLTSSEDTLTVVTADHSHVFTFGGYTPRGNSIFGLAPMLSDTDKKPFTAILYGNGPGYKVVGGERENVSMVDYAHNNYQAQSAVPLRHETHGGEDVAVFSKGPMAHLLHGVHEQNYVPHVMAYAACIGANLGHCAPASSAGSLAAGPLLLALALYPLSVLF

[9] = target: T2, Intestinal-type alkaline phosphatase (Homo sapiens, UniProt P09923); assay: human intestinal alkaline phosphatase activators, dose response, biochemical, luminescence, uHTS hits (AID 463120); format: functional
T2 sequence (P09923 whole entry): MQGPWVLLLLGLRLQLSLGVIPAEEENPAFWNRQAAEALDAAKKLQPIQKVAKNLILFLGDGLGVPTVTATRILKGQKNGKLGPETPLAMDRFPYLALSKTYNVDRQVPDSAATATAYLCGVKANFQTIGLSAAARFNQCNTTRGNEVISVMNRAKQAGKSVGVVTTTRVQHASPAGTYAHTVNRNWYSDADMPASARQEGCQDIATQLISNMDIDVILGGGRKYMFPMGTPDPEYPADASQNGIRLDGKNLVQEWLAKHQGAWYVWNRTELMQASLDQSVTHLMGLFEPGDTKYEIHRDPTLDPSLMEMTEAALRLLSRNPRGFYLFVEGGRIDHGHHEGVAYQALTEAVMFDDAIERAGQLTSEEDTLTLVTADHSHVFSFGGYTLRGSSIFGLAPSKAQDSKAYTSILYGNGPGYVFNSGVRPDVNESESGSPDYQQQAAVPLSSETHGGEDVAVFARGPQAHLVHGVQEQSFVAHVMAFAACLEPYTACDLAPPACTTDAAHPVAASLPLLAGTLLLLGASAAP

[10] = target: Intestinal-type alkaline phosphatase (Mus musculus, UniProt P24822); assay: PubChem AID 488875; format: functional
Chain of Intestinal-type alkaline phosphatase (Mus musculus, UniProt P24822) (P24822 whole entry): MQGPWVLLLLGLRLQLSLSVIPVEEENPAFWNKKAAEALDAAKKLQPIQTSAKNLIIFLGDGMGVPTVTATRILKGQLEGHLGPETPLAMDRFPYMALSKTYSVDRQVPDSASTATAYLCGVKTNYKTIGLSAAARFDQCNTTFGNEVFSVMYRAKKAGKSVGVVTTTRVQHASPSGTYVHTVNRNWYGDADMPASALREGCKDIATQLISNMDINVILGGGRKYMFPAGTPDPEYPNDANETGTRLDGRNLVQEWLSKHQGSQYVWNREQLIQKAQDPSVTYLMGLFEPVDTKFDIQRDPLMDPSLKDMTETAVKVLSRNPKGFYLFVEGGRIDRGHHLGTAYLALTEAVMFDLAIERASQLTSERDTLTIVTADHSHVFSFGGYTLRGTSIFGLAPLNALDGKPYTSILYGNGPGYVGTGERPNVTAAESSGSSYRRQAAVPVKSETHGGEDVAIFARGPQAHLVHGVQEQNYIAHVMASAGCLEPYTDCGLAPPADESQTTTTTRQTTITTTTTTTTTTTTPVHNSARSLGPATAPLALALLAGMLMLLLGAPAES

[11] = target: T2, Intestinal-type alkaline phosphatase; assay: activation of human intestinal alkaline phosphatase – biochemical, luminescent, uHTS hits, set 2, dose response (AID 488817); format: functional;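 note: potency of activators that raise enzyme activity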
[12] = viability loss of HMLE_sh_eGFP cells – cell-based, luminescence, counter-screen for HMLE_sh_ECad selective toxicity project, dose response (AID 463074); format: functional, Homo sapiens;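 note: HMLE human mammary epithelial cells expressing control shRNA against eGFP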
[13] = Luminescence Cell-Based Dose Retest to Confirm Inhibitors of Cancer Stem Cells. [Related pubchem assays (depositor defined):AID2717, AID2721]; format: functional; details: Homo sapiens
Phosphomannomutase 2 = Phosphomannomutase 2 (Homo sapiens, UniProt O15305); assay: Counter screen SAR assay for PMM2 inhibitors via a fluorescence intensity assay. [Related pubchem assays (depositor defined):AID1545, AID1574]
Chain of Phosphomannomutase 2 (O15305 whole entry): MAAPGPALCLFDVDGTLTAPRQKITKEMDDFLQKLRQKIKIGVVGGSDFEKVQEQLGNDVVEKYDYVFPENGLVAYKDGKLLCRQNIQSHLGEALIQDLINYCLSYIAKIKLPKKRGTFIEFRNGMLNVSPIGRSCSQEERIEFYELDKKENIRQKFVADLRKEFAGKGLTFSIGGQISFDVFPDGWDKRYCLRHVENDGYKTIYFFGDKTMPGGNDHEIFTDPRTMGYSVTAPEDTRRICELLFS

[14] = target: T3, Mannose-6-phosphate isomerase (Homo sapiens, UniProt P34949); assay: phosphomannose isomerase inhibition – biochemical, fluorescence intensity, confirmation (AID 1535)
T3 sequence (P34949 whole entry): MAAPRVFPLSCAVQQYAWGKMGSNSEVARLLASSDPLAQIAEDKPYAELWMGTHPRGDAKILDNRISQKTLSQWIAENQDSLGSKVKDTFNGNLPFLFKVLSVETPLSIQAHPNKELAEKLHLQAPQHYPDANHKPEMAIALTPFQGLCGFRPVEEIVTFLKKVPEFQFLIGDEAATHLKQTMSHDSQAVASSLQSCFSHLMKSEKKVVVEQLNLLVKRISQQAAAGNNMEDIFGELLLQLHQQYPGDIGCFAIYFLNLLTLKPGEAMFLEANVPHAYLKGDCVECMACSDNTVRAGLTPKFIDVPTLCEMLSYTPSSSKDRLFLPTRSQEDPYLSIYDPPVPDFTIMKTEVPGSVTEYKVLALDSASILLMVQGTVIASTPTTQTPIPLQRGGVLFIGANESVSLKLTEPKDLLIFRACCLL

[15] = target: Phosphoethanolamine/phosphocholine phosphatase (Homo sapiens, UniProt Q8TCT1); assay: SAR assay for compounds that inhibit PHOSPHO1. [Related pubchem assays (depositor defined):AID1545, AID1565, AID1574]
Chain of Phosphoethanolamine/phosphocholine phosphatase (Q8TCT1 whole entry): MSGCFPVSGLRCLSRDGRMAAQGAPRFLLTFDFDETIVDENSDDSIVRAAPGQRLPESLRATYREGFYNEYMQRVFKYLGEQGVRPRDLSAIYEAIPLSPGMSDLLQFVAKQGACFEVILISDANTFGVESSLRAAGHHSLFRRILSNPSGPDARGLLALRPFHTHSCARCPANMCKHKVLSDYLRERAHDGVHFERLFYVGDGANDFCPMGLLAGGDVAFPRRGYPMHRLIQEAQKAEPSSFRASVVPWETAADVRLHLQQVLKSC

Hexokinase-1 = target: T4, Hexokinase-1 (Homo sapiens, UniProt P19367); assay: hexokinase 1 activity inhibitors, potency – biochemical, set 2, resazurin fluorescence coupled readout, selectivity assay for HKDC1 inhibitor project, SAR follow-up (AID 588356); format: functional
T4 sequence (P19367 whole entry): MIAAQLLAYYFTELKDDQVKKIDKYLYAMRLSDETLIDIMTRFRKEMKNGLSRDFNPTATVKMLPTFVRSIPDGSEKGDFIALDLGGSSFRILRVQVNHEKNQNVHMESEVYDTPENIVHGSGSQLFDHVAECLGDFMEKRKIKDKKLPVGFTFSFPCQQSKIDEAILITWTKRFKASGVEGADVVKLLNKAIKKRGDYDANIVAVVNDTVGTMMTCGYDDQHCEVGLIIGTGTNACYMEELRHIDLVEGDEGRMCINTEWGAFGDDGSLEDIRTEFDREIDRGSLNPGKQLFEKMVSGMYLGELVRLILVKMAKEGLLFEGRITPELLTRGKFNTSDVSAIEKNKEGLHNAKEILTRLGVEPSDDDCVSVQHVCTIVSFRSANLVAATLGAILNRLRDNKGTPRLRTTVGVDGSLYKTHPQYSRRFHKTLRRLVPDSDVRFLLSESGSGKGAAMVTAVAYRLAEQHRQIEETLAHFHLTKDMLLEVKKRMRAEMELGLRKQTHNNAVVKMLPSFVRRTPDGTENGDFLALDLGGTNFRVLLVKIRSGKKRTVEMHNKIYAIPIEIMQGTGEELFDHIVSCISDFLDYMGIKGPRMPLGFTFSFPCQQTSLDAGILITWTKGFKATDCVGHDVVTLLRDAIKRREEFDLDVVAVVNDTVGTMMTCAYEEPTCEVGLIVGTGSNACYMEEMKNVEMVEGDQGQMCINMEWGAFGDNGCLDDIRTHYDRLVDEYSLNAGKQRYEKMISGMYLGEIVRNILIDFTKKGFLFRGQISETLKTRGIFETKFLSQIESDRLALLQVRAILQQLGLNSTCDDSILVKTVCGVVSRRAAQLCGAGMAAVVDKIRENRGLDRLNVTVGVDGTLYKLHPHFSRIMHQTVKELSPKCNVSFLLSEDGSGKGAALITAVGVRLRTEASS

Hexokinase HKDC1 = target: T5, Hexokinase HKDC1 (Homo sapiens, UniProt Q2TB90); assay: analog inhibition of human HKDC1 activity – biochemical, set 2, SAR follow-up (AID 588355); format: functional
T5 sequence (Q2TB90 whole entry): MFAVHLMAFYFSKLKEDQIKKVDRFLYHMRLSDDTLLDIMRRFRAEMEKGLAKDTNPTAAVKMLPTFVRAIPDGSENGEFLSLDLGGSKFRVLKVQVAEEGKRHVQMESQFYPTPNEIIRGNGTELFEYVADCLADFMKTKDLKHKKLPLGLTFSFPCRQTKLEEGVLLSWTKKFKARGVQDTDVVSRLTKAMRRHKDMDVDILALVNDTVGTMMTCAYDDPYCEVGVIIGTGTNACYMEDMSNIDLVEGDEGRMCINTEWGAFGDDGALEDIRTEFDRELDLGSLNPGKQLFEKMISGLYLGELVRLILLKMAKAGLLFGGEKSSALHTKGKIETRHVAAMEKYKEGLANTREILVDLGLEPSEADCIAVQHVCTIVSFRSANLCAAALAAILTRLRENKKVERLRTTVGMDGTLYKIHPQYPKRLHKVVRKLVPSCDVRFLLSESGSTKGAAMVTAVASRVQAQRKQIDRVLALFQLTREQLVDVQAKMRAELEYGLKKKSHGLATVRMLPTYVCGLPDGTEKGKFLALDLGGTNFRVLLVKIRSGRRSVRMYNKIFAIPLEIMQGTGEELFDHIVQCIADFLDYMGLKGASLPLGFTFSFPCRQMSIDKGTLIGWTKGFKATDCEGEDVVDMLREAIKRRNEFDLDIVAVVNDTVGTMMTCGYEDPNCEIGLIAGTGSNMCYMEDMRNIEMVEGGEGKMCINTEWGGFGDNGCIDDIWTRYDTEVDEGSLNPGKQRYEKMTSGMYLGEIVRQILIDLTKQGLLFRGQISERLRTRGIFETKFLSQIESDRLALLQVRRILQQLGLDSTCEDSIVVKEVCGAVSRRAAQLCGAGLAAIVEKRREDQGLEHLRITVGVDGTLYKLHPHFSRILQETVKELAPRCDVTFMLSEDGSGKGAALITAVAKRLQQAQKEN

[16] = target: T6, Short transient receptor potential channel 4 (Mus musculus, UniProt Q9QUQ5); assay: SAR Analysis for the identification of selective inhibits of the transient receptor potential cation channel C4 (TRPC4): Automated Electrophysiology_2. [Related pubchem assays (depositor defined):AID2256]; format: functional
T6 sequence (Q9QUQ5 whole entry): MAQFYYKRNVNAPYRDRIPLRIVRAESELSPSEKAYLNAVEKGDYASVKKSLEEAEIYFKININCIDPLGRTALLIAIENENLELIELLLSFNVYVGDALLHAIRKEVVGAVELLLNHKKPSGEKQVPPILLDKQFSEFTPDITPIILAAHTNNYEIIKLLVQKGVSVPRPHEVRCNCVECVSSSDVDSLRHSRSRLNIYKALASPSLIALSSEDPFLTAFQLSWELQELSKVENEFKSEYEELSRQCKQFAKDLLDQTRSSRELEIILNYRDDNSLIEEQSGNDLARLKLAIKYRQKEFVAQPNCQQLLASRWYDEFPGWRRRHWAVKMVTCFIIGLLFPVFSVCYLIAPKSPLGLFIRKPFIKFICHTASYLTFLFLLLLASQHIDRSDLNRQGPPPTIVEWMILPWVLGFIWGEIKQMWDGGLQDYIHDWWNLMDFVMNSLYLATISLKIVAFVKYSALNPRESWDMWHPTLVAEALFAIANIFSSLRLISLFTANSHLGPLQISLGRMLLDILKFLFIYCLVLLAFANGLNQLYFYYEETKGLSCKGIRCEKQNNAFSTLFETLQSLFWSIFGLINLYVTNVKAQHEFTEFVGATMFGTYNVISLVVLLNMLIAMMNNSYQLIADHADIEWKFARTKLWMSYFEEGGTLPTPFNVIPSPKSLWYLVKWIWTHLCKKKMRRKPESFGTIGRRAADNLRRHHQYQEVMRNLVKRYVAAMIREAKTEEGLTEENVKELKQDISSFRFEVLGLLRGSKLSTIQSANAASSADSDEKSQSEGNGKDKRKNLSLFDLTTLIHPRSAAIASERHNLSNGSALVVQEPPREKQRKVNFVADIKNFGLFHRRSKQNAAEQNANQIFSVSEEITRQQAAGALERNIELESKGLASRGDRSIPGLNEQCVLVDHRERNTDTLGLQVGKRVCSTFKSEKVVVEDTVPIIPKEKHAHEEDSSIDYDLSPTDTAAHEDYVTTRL

[17] = target: Heat shock protein HSP 90-alpha (Homo sapiens, UniProt P07900); format: functional, organism-based
[18] = target: Dual specificity tyrosine-phosphorylation-regulated kinase 1A (Rattus norvegicus, UniProt Q63470); format: biochemical, Homo sapiens

Question: Which EC50 [1] does the source give for `Cc1ccccc1OCCCCCn1ccnc1` here?
Answer: > 60 µM (not active)

Question: And the EC50 [2]?
Answer: 0.417 µM (active)

Question: What about the EC50 [3] of the same compound?
Answer: 0.54 µM (active)

Question: What about the EC50 [4] of the same compound?
Answer: 0.417 µM (active)

Question: And the EC50 [5]?
Answer: 116 µM (active)

Question: Which results are given for `CCOC(=O)c1c(CN(C)C)oc2cc(CN(C)C)c(O)c(CSc3ccccc3)c12`?
Answer: CC50 (MDCK [6]): 19.5 µM (active); IC50 (Nonstructural protein 1): > 100 µM (active); IC50 (MDCK [7]): 22.6 µM (active)

Question: With `CCCCOc1ccc(C2OC34CCCCC3C(C#N)(C#N)C2(C#N)C(=N)O4)cc1` (centres undefined) as the compound, how does the AC50 (Keap1/Nrf2) read?
Answer: > 52 µM (inactive)

Question: Which AC50 (HeLa) does the source give for `CCCN(Cc1ccc(C)cc1)C(=O)c1ccc(CNS(=O)(=O)c2ccc(C(C)=O)cc2)cc1` here?
Answer: 37.4 µM (active)

Question: For `COc1ccc(CN2CCC(n3nccc3NC(=O)CCCc3ccccc3)CC2)cc1C`, which EC50 [8] is on record?
Answer: 70.1 µM (active)

Question: And the EC50 [9]?
Answer: 77.4 µM (active)

Question: And the EC50 [10]?
Answer: 75 µM (active)

Question: And the EC50 [11]?
Answer: 72.5 µM (active)

Question: With `Cc1ccc2ncnc(Nc3ccc(C)c(C)c3)c2c1` as the compound, how does the AC50 [12] read?
Answer: 63.8 µM (active)

Question: And the AC50 [13]?
Answer: 1.03 µM (active)

Question: What does the source list for `O=c1c2c([N+](=O)[O-])cc([N+](=O)[O-])cc2sn1-c1cccc(F)c1`?
Answer: IC50 (Phosphomannomutase 2): 2.08 µM (active); IC50 [14]: 30.1 µM (active); IC50 [15]: 0.0348 µM (active)

Question: Which IC50 (Hexokinase-1) does the source give for `Cc1ccc(NC2c3ccccc3C(=O)N2c2ccccc2C)cc1` (centres undefined) here?
Answer: > 80 µM (inactive)

Question: What about the IC50 (Hexokinase HKDC1) of the same compound?
Answer: > 80 µM (inactive)

Question: For `Cc1cc(N2CCN(c3ccccc3C#N)CC2)nc2ccccc12`, which IC50 [16] is on record?
Answer: 8.9 µM (active)

Question: Which results are given for `O=[N+]([O-])c1cc(/C=N/O)ccc1Oc1ccccc1Cl`?
Answer: AC50 [17]: 3.04 µM (active); AC50 [18]: 3.19 µM (active)
